# Results: patent publication US6403602B1 (priority 1997, dated 2002)
# Experiments:
# mu receptors = format: cell-based, guinea pig
# kappa1 sites = target: T1, kappa1 sites (Cavia porcellus, UniProt P41144); experiment: biochemical; format: binding, guinea pig
# T1 construct: The brains were then homogenized in 50 mM Tris HCl, buffer pH 7.7, using a Polytron; from tissue; host or cells: guinea pig brain homogenate (membrane pellet)
# delta receptors = target: T2, delta receptors (Cavia porcellus, UniProt A0A286XTF2); experiment: biochemical; format: binding, guinea pig
# T2 construct: The brains were then homogenized in 50 mM Tris HCl, buffer pH 7.7, using a Polytron; from tissue; host or cells: guinea pig brain homogenate (membrane pellet)
# T2 sequence (A0A286XTF2 1-366): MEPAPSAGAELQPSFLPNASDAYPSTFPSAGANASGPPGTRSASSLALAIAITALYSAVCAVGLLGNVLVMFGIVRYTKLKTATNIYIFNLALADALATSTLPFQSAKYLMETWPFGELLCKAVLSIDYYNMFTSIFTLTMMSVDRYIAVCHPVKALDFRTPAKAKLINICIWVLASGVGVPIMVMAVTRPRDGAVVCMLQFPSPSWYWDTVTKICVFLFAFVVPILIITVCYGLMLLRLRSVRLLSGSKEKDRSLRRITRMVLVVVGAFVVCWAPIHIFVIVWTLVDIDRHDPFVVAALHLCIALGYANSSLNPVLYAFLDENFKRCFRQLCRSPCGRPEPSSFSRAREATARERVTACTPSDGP
# nociception (tail-flick) [1] = experiment: Tail-flick test after intracerebroventricular administration; format: in vivo; details: rat tail-flick, icv, molar dose equivalent to the lower dose of morphine
# [2] = test system: electrically stimulated mouse vas deferens; experiment: tissue or blood; format: cell-based; details: Mus musculus, read-out: Mouse vas deferens maximum inhibition
# mu opioid receptors = mu opioid receptors (Cavia porcellus, UniProt A0ACM8Q262); format: binding, guinea pig
# mu opioid receptors, sequence (A0ACM8Q262 1-400): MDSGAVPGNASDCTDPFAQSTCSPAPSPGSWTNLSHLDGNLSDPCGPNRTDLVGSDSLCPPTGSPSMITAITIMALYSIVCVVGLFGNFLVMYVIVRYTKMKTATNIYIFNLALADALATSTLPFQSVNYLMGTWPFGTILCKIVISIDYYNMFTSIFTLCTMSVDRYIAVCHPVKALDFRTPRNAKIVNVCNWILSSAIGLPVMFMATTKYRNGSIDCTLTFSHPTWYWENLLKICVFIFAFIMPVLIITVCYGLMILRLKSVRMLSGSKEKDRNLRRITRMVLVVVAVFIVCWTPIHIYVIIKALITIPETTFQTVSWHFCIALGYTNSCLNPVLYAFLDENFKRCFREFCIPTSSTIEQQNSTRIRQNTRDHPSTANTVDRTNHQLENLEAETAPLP
# [3] = test system: electrically stimulated guinea pig ileum; experiment: tissue or blood; format: cell-based
# [4] = test system: morphine withdrawal signs; experiment: Single dose substitution and precipitated morphine withdrawal in morphine dependent Rhesus monkeys; details: sc, M3A6S 2.5 and 10.0 mg/kg, DM3A6S 3.0, 12.0 and […]
# nociception (tail-flick) [5] = experiment: Tail-flick test after subcutaneous administration; details: rat tail-flick, sc, dose equimolar to 5 mg/kg morphine
# kappa3 receptors = format: binding, guinea pig
# kappa receptors = target: T3, kappa receptors (Cavia porcellus, UniProt P41144); format: cell-based, guinea pig
# T3 construct: The longitudinal muscle with the myenteric plexus attached was gently separated from the underlying circular muscle; from tissue; host or cells: guinea pig ileum longitudinal muscle with myenteric plexus
# T3 sequence (P41144 whole entry): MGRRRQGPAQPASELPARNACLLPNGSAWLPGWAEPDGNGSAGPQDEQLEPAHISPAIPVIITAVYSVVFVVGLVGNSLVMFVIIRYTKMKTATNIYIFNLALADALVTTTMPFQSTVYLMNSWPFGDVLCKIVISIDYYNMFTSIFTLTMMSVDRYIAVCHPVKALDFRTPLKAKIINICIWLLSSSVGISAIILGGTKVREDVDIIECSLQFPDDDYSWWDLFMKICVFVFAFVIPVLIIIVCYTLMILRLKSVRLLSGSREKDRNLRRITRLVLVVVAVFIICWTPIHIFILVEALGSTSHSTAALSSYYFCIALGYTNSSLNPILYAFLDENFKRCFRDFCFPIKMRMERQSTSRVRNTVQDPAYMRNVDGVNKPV
# κ2 sites = format: binding, guinea pig
# T1 sequence (P41144 whole entry): as above
smiles,measurement,setting,value
"CC(=O)Oc1ccc2c3c1O[C@H]1[C@@H](OS(=O)(=O)O)C=C[C@H]4[C@@H](C2)N(C)CC[C@@]341 [NIDA # 20,264, 3-O-Acetylmorphine-6-O-sulfate]",Guinea Pig Ileum DR with CTAP,mu receptors,5.40 ± 0.18
same,Guinea Pig Ileum Ke of CTAP,mu receptors,22.73 ± 0.91
same,Guinea Pig Ileum Ratio (CTAP),mu receptors,0.851
same,Ki,kappa1 sites,1.16 µM
same,binding to kappa1 sites in words,kappa1 sites,weakly
same,Ki,delta receptors,0.308 µM
same,duration of maximal analgesia,nociception (tail-flick) [1],90 min
same,time to maximal analgesic effect,nociception (tail-flick) [1],10 min
same,inhibition at 200 µM,[2],30%
same,Ki mu/Ki delta,mu opioid receptors,0.0026
same,affinity to mu receptors in words,mu opioid receptors,greater affinity than that of morphine
same,"selectivity for mu-receptors, greater than morphine",mu opioid receptors,3 fold
same,"Guinea pig ileum, result in words",[3],inhibited electrically induced twitches
same,IC50,"[3]; Cavia porcellus, read-out: Guinea Pig Ileum IC50 (nM)",25.9 ± 5.3 nM
same,"substitution for morphine / withdrawal, in words",[4],"did not substitute for morphine, nor did it exacerbate withdrawal"
same,analgesic activity in words,nociception (tail-flick) [5],analgesic profile similar to that of M6S
same,duration of maximal analgesic effect,nociception (tail-flick) [5],4 h
same,affinity to kappa3 receptors in words,kappa3 receptors,greater affinity than that of morphine
same,"selectivity for kappa3 receptors, greater than morphine",kappa3 receptors,2.2 fold
same,Ki,kappa3 receptors; read-out: Ki κ3 [^3H]NalBzoH,0.0055 µM
same,Guinea Pig Ileum DR with Nor-BNI,kappa receptors,1.39 ± 0.14
same,Guinea Pig Ileum Ke of Nor-BNI,kappa receptors,54.42 ± 19.6
same,Guinea Pig Ileum Ratio (Nor-BNI),kappa receptors,0.001
same,IC50,κ2 sites,> 10 µM
